{"source": "patent US20140142150A1", "about": "“TREATING NEUROPSYCHIATRIC DISORDERS” (THE GENERAL HOSPITAL CORPORATION, priority 2011, published 2014)", "test_system": "stable schizophrenia patients", "test": "placebo controlled add-on trial of once-weekly D-cycloserine, negative symptoms by modified SANS total score", "type": "in vivo, human", "experimental": "Study procedures were approved by the Partners HealthCare and Massachusetts Department of Mental Health institutional review boards, and all participants provided written informed consent. A diagnosis of schizophrenia was confirmed by a consensus diagnostic conference based on results from a clinical diagnostic interview, chart review, and review of clinical history with treating physicians.\nSubjects were administered the Positive and Negative Syndrome Scale (PANSS) (Kay et al., Schizophrenia Bulletin 13:261-276) to assess symptom severity by trained raters who were blind to genotype.\nDNA was obtained from blood samples and genotyped for variants across two genes: G72 and GCPII. Specific variants were selected on the basis of (1) common occurrence in the general population (minor allele frequency >0.2), (2) coding for non-synonymous mutations in amino acid sequences, and (3) previous support in the literature for an association with schizophrenia. No additional genetic variants were studied. Genotyping was conducted using the MASSARRAY® platform (Sequenom, San Diego, Calif.) using the nucleotide primers shown in Table 2.\nNegative symptoms were measured by the modified SANS total score at baseline and at week 8, seven days after the last dose of study drug. […] The sample was subsequently enlarged to 45 subjects and G72 genotype was examined as a predictor of response. G72 is the most-validated schizophrenia risk gene that influences activity at the glycine site of the NMDA receptor complex. One G72 SNP, rs3916971 (M21), that achieved significant association with schizophrenia risk in a meta-analysis performed by “SzGene” (Bertram, Schizophr Bull. 34:806-12, 2008) was examined. In the enlarged sample of 45 subjects, the effect size of D-cycloserine improvement of negative symptoms compared to placebo increased to 0.9 and G72 genotype produced a drug x genotype effect size of 0.7. Within subjects receiving D-cycloserine, G72 genotype predicted response with an effect size of 0.9 and within subjects with the TT genotype, the effect size of D-cycloserine improvement of negative symptoms vs. placebo was 2.3 (FIG. 1)."}
{"smiles": "N[C@@H]1CONC1=O", "note": "[D-cycloserine]", "values": [{"measurement": "drug x genotype effect size (G72 rs3916971 genotype)", "setting": "enlarged sample of 45 subjects", "value": 0.7}, {"measurement": "effect size of improvement of negative symptoms compared to placebo", "setting": "enlarged sample of 45 subjects, once-weekly 50 mg", "value": 0.9}, {"measurement": "improvement of negative symptoms (modified SANS total score), effect size", "setting": "once-weekly 50 mg add-on to antipsychotics, 38 stable schizophrenia patients, baseline to week 8, vs placebo", "value": 0.7}, {"measurement": "patients exhibiting a 20% or greater improvement in SANS total score", "setting": "once-weekly 50 mg, 38 patients, week 8 (placebo group 11%)", "value": 30, "unit": "%"}, {"measurement": "G72 genotype prediction of response, effect size", "setting": "within subjects receiving D-cycloserine, enlarged sample", "value": 0.9}, {"measurement": "effect size of improvement of negative symptoms vs. placebo", "setting": "within subjects with the TT genotype at G72 rs3916971 (FIG. 1)", "value": 2.3}]}
